Patent US20260256145A1, “IRON AGENT FOR GROWING ANIMALS AND PLANTS, METHOD FOR PRODUCING THE SAME, AND IRON SUPPLY PREPARATION FOR GROWING ANIMALS AND PLANTS” (Sobue Clay Co., Ltd., priority 2023, published 2026)

Legend:
[1] = test system: plants; assay: Consideration of Use Examples 1 to 6: plant weight index versus no iron agent; type: in vivo; details: no irrigation with an iron agent = 100, based on Use Examples 1 to 6
Procedure: (§1) An aqueous solution of sodium ferrous citrate to be irrigated was prepared by adding 150 g of citric acid to 850 ml of tap water to produce citric acid water, then adding thereto 25 g of reduced iron powder, followed by stirring, and then adding to the resultant mixture 150 g of sodium hydrogen carbonate, followed by stirring and mixing.
The following consideration is made based on the results of Use Examples 1 to 6.
When the index in the case of no irrigation with an iron agent is 100, with respect to the plant's aboveground weight, it is 116 in the case of the irrigation with the aqueous solution of iron citrate and 209 in the case of the irrigation with the aqueous solution of sodium ferrous citrate, and with respect to the plant's root weight, it is 134 in the case of the irrigation with the aqueous solution of iron citrate and 464 in the case of the irrigation with the aqueous solution of sodium ferrous citrate.

[2] = Change of Fe2+ ion concentration of the aqueous solution in the production process; type: physicochemical; details: iron mixed with the citrate solution while stirring, FIGS. 1 to 4
Procedure: The aqueous solution of iron citrate is prepared by any one of the following methods: a method in which citric acid, solid iron and water are stirred and mixed together; a method in which solid iron is added to citric acid having been dissolved in water, followed by stirring and mixing; and a method in which solid iron and citric acid powder are added to a required amount of citric acid having been dissolved in water, followed by stirring and mixing while, if necessary, heating. To the thus obtained aqueous solution of iron citrate is mixed sodium hydrogen carbonate while, if necessary, heating, thereby producing an aqueous solution of sodium ferrous citrate. By the addition of sodium hydrogen carbonate, the aqueous solution of sodium ferrous citrate has been alkalized to have a pH value of from 5 to 8.
FIGS. 2 to 4 respectively show the change of the Fe^2+ ion concentration of aqueous iron agent solutions 1 to 3 for growth, each of which is produced by the above-mentioned method. […] Therefore, it is judged that the aqueous iron citrate solution is not suitable as an iron agent for growth.
In the cases of aqueous sodium ferrous citrate solutions 1 to 3 shown in FIGS. 2 to 4, the Fe^2+ ion concentration is confirmed to increase, differing from the case of the aqueous iron citrate solution shown in FIG. 1. […]

[3] = test system: molokheiya; assay: Use Example 1: growth of molokheiya irrigated with iron agent; type: in vivo; details: irrigation once a week, after 30 days of cultivation, in comparison with the other plants (no iron agent, iron citrate)
Procedure: as §1
(§2) Plants not irrigated with an iron agent (left side of the figure), plants irrigated with an aqueous solution of iron citrate (center of the figure), and plants irrigated with an aqueous solution of sodium citrate (right side of the figure) as the iron supply preparation for growth of the present application were provided, and the plants were cultivated while performing irrigation on the plants at a rate of once a week, and the growth conditions after 30 days of cultivation are shown. Each of the aqueous solution of iron citrate and the aqueous solution of sodium ferrous citrate was diluted 10000 times so that the total iron content was 15000 ppm, and the Fe^2+ content was 3000 ppm for iron citrate and 12500 ppm for sodium ferrous citrate.

[4] = test system: komatsuna (Japanese mustard spinach); assay: Use Example 2: growth of komatsuna irrigated with iron agent; type: in vivo; details: irrigation once a week, after 23 days of cultivation, in comparison with the other plants
Procedure: as §1
as §2, with “after 23” for “after 30”

[5] = test system: okra; assay: Use Example 3: growth of okra irrigated with iron agent; type: in vivo; details: irrigation once a week, after 19 days of cultivation, in comparison with the other plants
Procedure: as §1
as §2, with “after 19” for “after 30”

[6] = test system: red leaf lettuce; assay: Use Example 4: growth of red leaf lettuce irrigated with iron agent; type: in vivo; details: irrigation once a week, after 19 days of cultivation, in comparison with the other plants
Procedure: as §1
as §2, with “after 19” for “after 30”

[7] = test system: parsley; assay: Use Example 5: growth of parsley irrigated with iron agent; type: in vivo; details: irrigation once a week, after 19 days of cultivation, in comparison with the other plants
Procedure: as §1
as §2, with “after 19” for “after 30”

[8] = test system: Italian parsley; assay: Use Example 6: growth of Italian parsley irrigated with iron agent; type: in vivo; details: irrigation once a week, after 19 days of cultivation, in comparison with the other plants
Procedure: as §1
as §2, with “after 19” for “after 30”

Substance: iron citrate [reference compound]
- index of the plant's aboveground weight [1]: 116
- index of the plant's root weight [1]: 134
- change of the Fe^2+ ion concentration of the aqueous solution [2]: not confirmed to increase

Substance: sodium ferrous citrate
- rooting [3]: improvement
- weight of the aboveground part [3]: increase
- rooting [4]: improvement
- weight of the aboveground part [4]: increase
- rooting [5]: improvement
- weight of the aboveground part [5]: increase
- rooting [6]: improvement
- weight of the aboveground part [6]: increase
- rooting [7]: improvement
- weight of the aboveground part [7]: increase
- rooting [8]: improvement
- weight of the aboveground part [8]: increase
- index of the plant's aboveground weight [1]: 209
- index of the plant's root weight [1]: 464
